# Experimental data published in US10088490B2, “Assay for analytes using multiple receptors” (Siemens Healthcare Diagnostics Inc., priority 2010, dated 2018).
# Experiments:
# Format in all cases: binding
# [1] = tested on: mixture of Biotinylated Antibody A Reagent and Biotinylated Antibody L Reagent; experiment: LOCI competitive cortisol immunoassay, cross-reactivity with mixtures of Biotinylated Antibody A and L Reagents; conditions: for percent cross reactivity: steroid-stripped serum with cortisol
# Method: (§1) The assay used for screening purposes was conducted on the DIMENSION® VISTA® instrument (system) (Siemens Healthcare Diagnostics Inc., Newark Del.). Initially, 20 μL Biotinylated Antibody Reagent with 15 μL system water was added to the vessel. After 22 seconds, 15 μL sample with 15 μL system water were added to the vessel. After almost 4 minutes, 20 μL Chemibead Reagent with 15 μL system water were added to the vessel. Approximately 7 minutes later, 20 μL Sensibead Reagent with 135 μL system water was added to the vessel. The LOCI® read was taken after approximately 5 minutes. The assay from the first reagent addition to the final read took approximately 16 minutes. The contents of the vessel when the final read is taken were as follows: 2 ng/mL Biotinylated Antibody Reagent, 4 μg/mL Chemibead Reagent, 56 μg/mL Sensibead Reagent, and […] sample. The assay is a competitive format, which means that the greater the concentration of analyte in the sample, the smaller is the signal generation. This is because a detectable complex is formed by the Biotinylated Antibody Reagent, Chemibead Reagent, and Sensibead Reagent in the absence of analyte. The presence of analyte decreases the proportion of Biotinylated Antibody Reagent that is free to form detectable complexes.
# (§2) Initial testing used Biotinylated Antibody A Reagent with the other reagents and the methodology described above to analyze the steroid-stripped serum with cortisol. The panel of 34 cross-reactants were individually added to the steroid-stripped serum with a defined concentration of cortisol (5 ng/dL) and assayed. Cross-reactivity data were calculated as follows:
# (§3) [formula] The same testing was performed using Biotinylated Antibody L Reagent. The compilation of the percent cross-reactivities for the 34 compounds is referred to as the cross-reactivity profile. The apparent cortisol concentration is the cortisol value obtained when testing a sample containing cortisol and the interfering substance by the above test method that also detects the interfering substance to some degree.
# A further study was performed by mixing Biotinylated Antibody A Reagent with Biotinylated Antibody L Reagent in a 50:50 mixture; 80% Biotinylated Antibody A Reagent: 20% Biotinylated Antibody L Reagent; 75% Biotinylated Antibody A Reagent: 25% Biotinylated Antibody L Reagent; and 70% Biotinylated Antibody A Reagent: 30% Biotinylated Antibody L Reagent. […] These reagents were used to test cross-reactivity in stripped serum with cortisol.
# [2] = tested on: Antibody A specific for cortisol (clone 16DC/17.7, IgG1κ); experiment: LOCI competitive cortisol immunoassay, cross-reactivity screening with Biotinylated Antibody A Reagent; conditions: 100% A Biotinylated Antibody; steroid-stripped serum with cortisol (5 ng/dL)
# Method: (§4) The antibodies were subjected to analytical size exclusion chromatography prior to any manipulations.
# (§5) NHS-PEO4-Biotin was dissolved fresh at 10 mg/mL in Antibody Dialysis Buffer. […] The mixture was rocked at 25° C. for exactly 3 hours. A 200 mM solution of glycine was prepared by dissolving 750 mg glycine in Antibody Dialysis Buffer to a total volume of 50 mL. At the end of the 3-hour biotinylation reaction, 1.52 mL of the 200 mM glycine solution was added to the reaction mixture. The quenched reaction mixture was rocked an additional 60 minutes at 25° C.
# (§6) The biotinylated antibody was then purified using preparatory HPLC using Antibody Dialysis Buffer as the mobile phase. […] This reagent was designated as the Biotinylated Antibody Reagent.
# as §1, §2, §3
# [3] = tested on: Antibody L specific for cortisol (clone XM210, IgG2a); experiment: LOCI competitive cortisol immunoassay, cross-reactivity screening with Biotinylated Antibody L Reagent; conditions: 100% L Biotinylated Antibody; steroid-stripped serum with cortisol (5 ng/dL)
# Method: as §4, §5, §6, §1, §2, §3
# [4] = 70% A 30% L Biotinylated Antibody
# [5] = 75% A 25% L Biotinylated Antibody
# [6] = 80% A 20% L Biotinylated Antibody
Structure (SMILES),"percent cross reactivity [1, 4] [%]","percent cross reactivity [1, 5] [%]","percent cross reactivity [1, 6] [%]",percent cross reactivity [2] [%],percent cross reactivity [3] [%],decrease of percent cross-reactivity ([1]; incorporation of 25% Biotinylated Antibody Reagent L versus 100% A)
CC(=O)[C@H]1CC[C@H]2[C@@H]3CCC4=CC(=O)CC[C@]4(C)[C@H]3[C@@H](O)C[C@]12C [11β-hydroxyprogesterone],0.7,0.7,0.6,0.6,0.7,
C[C@]12CC(=O)[C@H]3[C@@H](CCC4=CC(=O)CC[C@@]43C)[C@@H]1CC[C@@H]2C(=O)CO [dehydrocorticosterone],0.7,0.7,0.7,0.6,0.8,
C[C@]12CC[C@@H](O)C[C@H]1CC[C@@H]1[C@@H]2[C@@H](O)C[C@@]2(C)[C@H]1CC[C@]2(O)[C@H](O)CO [β-cortol],0.0,0.0,0.0,0.0,0.0,
C[C@]12CCC(=O)C=C1CC[C@@H]1[C@@H]2C(=O)C[C@@]2(C)[C@H]1CC[C@]2(O)C(=O)CO [cortisone],2.5,2.8,3.1,41.7,1.4,greater than 90%
C[C@]12CC[C@@H](O)C[C@H]1CC[C@@H]1[C@@H]2C(=O)C[C@@]2(C)[C@H]1CC[C@]2(O)[C@@H](O)CO [α-cortolone],0.0,0.0,0.0,0.0,0.0,
CC(=O)[C@@]1(O)CC[C@H]2[C@@H]3CCC4=CC(=O)CC[C@]4(C)[C@H]3CC[C@@]21C [17α-hydroxyprogesterone],1.6,1.8,2.1,24.1,0.9,
C[C@]12CC[C@@H](O)C[C@H]1CC[C@@H]1[C@@H]2C(=O)C[C@@]2(C)[C@H]1CC[C@]2(O)C(=O)CO [tetrahydrocortisone],0.2,0.2,0.3,0.5,0.1,
CC(=O)[C@H]1CC[C@H]2[C@@H]3CCC4=CC(=O)CC[C@]4(C)[C@H]3CC[C@]12C [progesterone],0.6,0.6,0.6,0.6,0.6,
CC(=O)[C@@]1(O)CC[C@H]2[C@@H]3CCC4=CC(=O)CC[C@]4(C)[C@H]3[C@@H](O)C[C@@]21C [21-deoxycortisol],7.2,6.9,6.9,8.3,6.4,
C[C@]12CC[C@@H](O)C[C@H]1CC[C@@H]1[C@@H]2C(=O)C[C@]2(C)C(=O)CC[C@@H]12 [11-ketoetiocholanolone],0.0,0.0,0.0,0.0,0.0,
C[C@]12CC[C@@H](O)C[C@H]1CC[C@@H]1[C@@H]2C(=O)C[C@@]2(C)[C@H]1CC[C@]2(O)[C@H](O)CO [β-cortolone],0.0,0.0,0.0,0.0,0.0,
C[C@]12C=CC(=O)C=C1CC[C@@H]1[C@@H]2[C@@H](O)C[C@@]2(C)[C@H]1CC[C@]2(O)C(=O)CO [prednisolone],12.4,12.2,12.4,13.6,10.2,
